From patent US6818215B2, “Antibodies to senescent cell-derived inhibiters of DNA synthesis” (priority 1991, dated 2004)

What was measured:
[1] = test system: SUSMI; assay: Transient transfection of SDI-1, inhibition of DNA synthesis; assay type: cell-based
Excerpt: (§1) This provides further evidence that SDI-1 behaves like the inhibitor previously detected in senescent cells.

[2] = test system: SV40 transformed cell line GM639; assay: as above; assay type: cell-based
Excerpt: as §1

[3] = test system: Breast (T-47 D); assay: GST-SDI-1 fusion protein, thymidine incorporation; assay type: cell-based, human
Method: (§2) As indicated above, SDI-1 has the capacity to suppress the proliferation of tumor cells. […] In the experiment, 5×10^3 cells were plated overnight at 37° C. (only for adherent cells) and then incubated with the SDI fusion protein. After 48 hours at 37° C., cells were pulsed with thymidine for 24 hours and then harvested. The results of this experiment are shown in Table 8; the thymidine incorporation by untreated cells was expressed as 100%. all determinations were made in quadruplicate.

[4] = test system: Burkitt Lymphoma (Daudi); assay: GST-SDI-1 fusion protein, thymidine incorporation; assay type: cell-based, human; settings: 30 μg/ml
Method: as §2

[5] = test system: Glial (U-251); assay: GST-SDI-1 fusion protein, thymidine incorporation; assay type: cell-based, human
Method: as §2

[6] = test system: Hepatocellular (Hep G2); assay: GST-SDI-1 fusion protein, thymidine incorporation; assay type: cell-based, human
Method: as §2

[7] = test system: Lung adenocarcinoma (A-549); assay: GST-SDI-1 fusion protein, thymidine incorporation; assay type: cell-based, human
Method: as §2

[8] = test system: Fibroblasts (L-929); assay: GST-SDI-1 fusion protein, thymidine incorporation; assay type: cell-based, Murine; settings: 50 μg/ml
Method: as §2

[9] = test system: SV 40 early promoter; assay: CAT reporter transcription assay, SV-CAT; assay type: cell-based
Method: (§3) The effect of the human SDI-1 on transcription driven by two E2F-responsive promoters was determined. Proliferating A31 cells were transfected with an SDI-1 expression vector in which the SDI-1 cDNA was driven by the strong constitutive cytomegalovirus early promoter (CMV) together with a reporter vector in which the chloramphenicol acetyltransferase (CAT) gene was driven by either the hamster dihydrofolate reductase (DHFR) promoter or the human cdc2 promoter (cdc2-CAT). A31 cells are Balb/c murine 3T3 fibroblasts whose origin and growth properties have been described (Lu, K. et al., Molec. Cell. Biol. 9:3411-3417 (1989); Dimri, G. P et al., J. Biol. Chem. 269:16180-16186 (1994), herein incorporated by reference). Cells were transfected with 2 μg of expression vectors, reporters vectors (for transactivation) and the CMV-β-gal identification/normalization vector using Lipofectamine (Gibco-BRL), as described by Dimri, G. P et al. (J. Biol. Chem. 269:16180-16186 (1994), herein incorporated by reference), The vector backbone was added to the mixture as needed to equalize the amount of transfected DNA. Seventy-two hours later, the cells were lysed and assayed for chloramphenicol acetyl transferase (CAT) and β-galactosidase activity. Both DHFR and cdc2 were expressed by proliferating cells, largely due to E2F-mediated transcription that is dependent on E2F binding sites in the 5′ regulatory regions of these genes (Slansky, J. E. et al., Molec. Cell. Biol. 13:1610-1618 (1993); Dalton, S., EMBO J. 11:1797-1804 (1992)).
In sharp contrast to the response of the DHFR and cdc2 promoters, CMV-SDI-1 had little or no effect on reporter activity driven by either the SV 40 early promoter (SV-CAT or the c-fos promoter (fos-CAT) (Table 16). Neither the SV40 early genes nor c-fos has been reported to be E2F-responsive.

[10] = test system: SV40 early promoter with mutant E2F binding sites (SV/E2Fm); assay: CAT reporter transcription assay, SV/E2Fm-CAT; assay type: cell-based; settings: A31 cells
Method: as §3, with “Seventy-two hours later, the cells were lysed and assayed for chloramphenicol acetyl transferase (CAT) and β-galactosidase activity. Both DHFR and cdc2 were expressed by proliferating cells, largely due to E2F-mediated transcription that is dependent on E2F binding sites in the 5′ regulatory regions of these genes (Slansky, J. E. et al., Molec. Cell. Biol. 13:1610-1618 (1993); Dalton, S., EMBO J. 11:1797-1804 (1992)).” left out
To more critically ascertain whether the inhibition of transcription by SDI-1 was E2F-dependent, three E2F binding sites were inserted into the SV40 early promoter and the effect of CMV-SDI-1 on CAT activity driven by this modified promoter (SV/E2F) was determined. […]

[11] = test system: C33A (HTB 31); assay: DNA synthesis inhibition by SDI-1 in pRb-deficient cells; assay type: cell-based, human
Method: Because SDI-1 inhibits the protein kinases that phosphorylate pRb, and unphosphorylated pRb is believed to negatively regulate E2F activity (Nevins, J. R., Science 258:424-429 (1992)), pRb is presumed to be a central mediator of SDI-1's effects. Since A31 cells express a normal Rb gene, the ability of SDI-1 to inhibit E2F activity, and possibly growth, in tumor cells that lack a functional pRb was tested. […] C33A cells were obtained from the American Type Culture Collection (Rockville, Md.).
By contrast, C33A and A31 cells were equally sensitive to SDI-1 inhibition of E2F activity. Thus, CMV-SDI-1 reduced DHFR-, cdc2- and SV/E2F-driven CAT activity to approximately equal extents in C33A and A31 cells. As expected CMV-SDI-1 had no effect on SV/E2Fm-driven CAT activity in either cell line.

SDI-1: senescent cell derived inhibitor of DNA synthesis, 164 amino acid protein, SEQ ID NO:2
inhibition (DNA synthesis) [1]: 40% | inhibition (DNA synthesis) [2]: < 20% | Relative Cell (% of Control) ([3]; 30 μg/ml): 2 ± 0 % of Control | Relative Cell (% of Control) ([3]; 50 μg/ml): 2 ± 0 % of Control | Relative Cell (% of Control) [4]: 3 ± 0 % of Control | Relative Cell (% of Control) ([5]; 30 μg/ml): 66 ± 4 % of Control | Relative Cell (% of Control) ([5]; 50 μg/ml): 35 ± 2 % of Control | Relative Cell (% of Control) ([6]; 30 μg/ml): 21 ± 3 % of Control | Relative Cell (% of Control) ([6]; 50 μg/ml): 12 ± 2 % of Control | Relative Cell (% of Control) ([7]; 30 μg/ml): 40 ± 1 % of Control | Relative Cell (% of Control) ([7]; 50 μg/ml): 25 ± 3 % of Control | Relative Cell (% of Control) [8]: 4 ± 1 % of Control | % Activity ([9]; SDI-1 1.0 μg): 103% | % Inhibition ([9]; SDI-1 1.0 μg): 0% | Normalized CAT Activity ([9]; SDI-1 1.0 μg): 3743 counts per minute | % Activity ([9]; SDI-1 2.0 μg): 106% | % Inhibition ([9]; SDI-1 2.0 μg): 0% | Normalized CAT Activity ([9]; SDI-1 2.0 μg): 3828 counts per minute | % Activity ([9]; SDI-1 4.0 μg): 93% | % Inhibition ([9]; SDI-1 4.0 μg): 7% | Normalized CAT Activity ([9]; SDI-1 4.0 μg): 3366 counts per minute | Transcription (Normalized) % Activity [10]: 93% | Transcription (Normalized) % Inhibition [10]: 7% | inhibition (antiproliferative effect) [11]: 40-50%
